From patent US11780845B2 (Relay Therapeutics, Inc., priority 2019, dated 2023) come the findings set out here.

The target of experiment [1] is FGFR2 (Homo sapiens (Human), UniProt P21802). The experiment can be described thus: FGFR2 Biochemical Caliper Assay. The protocol:
Compounds of the present invention were also tested in a FGFR2 Biochemical Caliper Assay. Compounds were prepared in 10 mM DMSO solution and serially diluted into 11 concentrations by 3-fold dilution. […] 5 uL of ATP solution (100 uM) was added to start the reaction and the plate was incubated for 90 minutes, then 70 uL of stopping buffer (0.5M EDTA) was added to terminate the reaction. Each well was analyzed using EZ reader.

In experiment [2] the test system is SNU16 cells. The experiment in a line: SNU16 Cancer Cell Line Proliferation Assay. The format is cell-based. As to conditions: Homo sapiens; SNU-16 cells. Put shortly:
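Proliferation read-out: CellTiter Glo chemiluminescence after 96 h compound exposure. Test compounds, serially diluted 3-fold over 11 points from a 10 mM DMSO stock, were added to SNU16 cells plated 24 h earlier at 37 degrees.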

Where only a bound is given, the exact number is not on record here.

FGFR2, sequence (P21802 22-821): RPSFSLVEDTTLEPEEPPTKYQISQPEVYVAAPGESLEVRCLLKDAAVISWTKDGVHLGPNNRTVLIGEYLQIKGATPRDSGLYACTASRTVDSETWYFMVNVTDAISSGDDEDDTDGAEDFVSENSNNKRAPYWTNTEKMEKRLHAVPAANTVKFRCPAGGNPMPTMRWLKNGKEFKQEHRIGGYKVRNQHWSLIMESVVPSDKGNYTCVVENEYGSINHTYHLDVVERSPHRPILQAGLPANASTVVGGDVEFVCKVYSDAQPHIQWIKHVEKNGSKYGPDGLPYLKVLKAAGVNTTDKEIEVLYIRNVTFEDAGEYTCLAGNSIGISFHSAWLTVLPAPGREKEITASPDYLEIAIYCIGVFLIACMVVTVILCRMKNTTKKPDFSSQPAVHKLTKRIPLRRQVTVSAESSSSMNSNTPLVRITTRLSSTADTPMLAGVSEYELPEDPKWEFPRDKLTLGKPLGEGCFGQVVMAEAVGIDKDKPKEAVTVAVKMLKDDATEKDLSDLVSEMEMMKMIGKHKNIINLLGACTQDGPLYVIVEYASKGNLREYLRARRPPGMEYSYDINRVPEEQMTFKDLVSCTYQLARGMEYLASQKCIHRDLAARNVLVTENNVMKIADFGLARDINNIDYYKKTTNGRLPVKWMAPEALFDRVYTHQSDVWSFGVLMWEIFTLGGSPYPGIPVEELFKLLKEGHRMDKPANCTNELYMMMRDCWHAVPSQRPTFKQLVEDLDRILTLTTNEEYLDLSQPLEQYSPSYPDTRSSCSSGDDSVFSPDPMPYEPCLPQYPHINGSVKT

Consider `C=C(C)C(=O)Nc1ccc(-c2c(-c3ccc(C(=O)NC(CF)CF)cc3)c3c(N)ncnc3n2C)cc1` [Example 371], for which the IC50 (usually the point on the concentration scale where inhibition reaches its midpoint) in experiment [1] is below 100 nM; in experiment [2], at most 100 nM.

For the compound `C=C(C)C(=O)Nc1ccc(-c2c(-c3ccc(C(=O)NCC4(CO)CC4)cc3)c3c(N)ncnc3n2C)cc1` [Example 372], the IC50 in experiment [1] was below 100 nM; in experiment [2], 250 to 1000 nM.

As for `C=C(C)C(=O)Nc1ccc(-c2c(-c3ccc(C(=O)NCC(C)(C)C#N)cc3)c3c(N)ncnc3n2C)cc1` [Example 373], the results for the IC50 in experiment [1] and in experiment [2] were below 100 nM and at most 100 nM, respectively.

As for `C=C(C)C(=O)Nc1ccc(-c2c(-c3ccc(C(=O)N(C)Cc4nnc(C)o4)cc3)c3c(N)ncnc3n2C)cc1` [Example 374], the IC50 lay within 1000 to 100000 nM in experiment [1] and 250 to 1000 nM in experiment [2].

On to `C=C(C)C(=O)Nc1ccc(-c2c(-c3ccc(C(=O)N(C)Cc4noc(C)n4)cc3)c3c(N)ncnc3n2C)cc1` [Example 375], for which the IC50 in experiment [1] and in experiment [2] was 250 to 1000 nM each time.

Turning to `C=C(C)C(=O)Nc1ccc(-c2c(-c3ccc(C(=O)NCC4CCCO4)cc3)c3c(N)ncnc3n2C)cc1` (stereo not drawn) [Example 376], the IC50 was below 100 nM in experiment [1] and at most 100 nM in experiment [2].

For the compound `C=C(C)C(=O)Nc1ccc(-c2c(-c3ccc(C(=O)NCC4CCCN4C)cc3)c3c(N)ncnc3n2C)cc1` (stereo not drawn) [Example 377], the IC50 in experiment [1] and in experiment [2] was 250 to 1000 nM throughout.

`C=C(C)C(=O)Nc1ccc(-c2c(-c3ccc(Oc4cccc(C)n4)c(OCCOC)c3)c3c(N)ncnc3n2C)cc1` [Example 378]: the IC50 fell in the range of 1000 to 100000 nM in experiment [1] and 250 to 1000 nM in experiment [2].

With `C=C(C)C(=O)Nc1ccc(-c2c(-c3ccc(Oc4cccc(N)n4)cc3)c3c(N)ncnc3n2C)cc1` [Example 379], the values for the IC50 in experiment [1] and in experiment [2] were below 100 nM and at most 100 nM, respectively.

In the case of `C=C(C)C(=O)Nc1ccc(-c2c(-c3ccc(Oc4cccc(C)n4)cc3)c3c(N)ncnc3n2C)cc1CN(C)C` [Example 380], the IC50 in experiment [1] lay within 100 to 250 nM; in experiment [2] it was 250 to 1000 nM.

Regarding `C=C(C)C(=O)Nc1ccc(-c2c(-c3ccc(C(=O)NCC4CCC4)cc3)c3c(N)ncnc3n2C)cc1` [Example 381], the values for the IC50 in experiment [1] and in experiment [2] were below 100 nM and at most 100 nM, respectively.

On to `C=C(C)C(=O)Nc1ccc(-c2c(-c3ccc(Oc4nccc(C)n4)cc3)c3c(N)ncnc3n2C)cc1` [Example 382], for which the IC50 in experiment [1] was below 100 nM; in experiment [2], at most 100 nM.

Take `C=C(C)C(=O)Nc1ccc(-c2c(-c3ccc(C(=O)NCc4ccn(C)n4)cc3)c3c(N)ncnc3n2C)cc1` [Example 383]: the IC50 in experiment [1] lay in the range of 1000 to 100000 nM; in experiment [2], 250 to 1000 nM.

Regarding `C=C(C)C(=O)Nc1ccc(-c2c(-c3ccc(Oc4cccc(C)n4)cc3)c3c(N)ncnc3n2C)c(C)c1` [Example 384], the figures for the IC50 in experiment [1] and in experiment [2] were below 100 nM and at most 100 nM, respectively.

`C=C(C)C(=O)Nc1ccc(-c2c(-c3ccc(Oc4cccc(C)n4)cc3)c3c(N)ncnc3n2C)cc1C` [Example 385]: the IC50 in experiment [1] was 100 to 250 nM; in experiment [2], at most 100 nM.

Turning to `C=C(C)C(=O)Nc1ccc(-c2c(-c3ccc(C(=O)NC4CCOC4)c(OC)c3)c3c(N)ncnc3n2C)cc1` (stereo not drawn) [Example 386], the IC50 is below 100 nM in experiment [1] and 100 to 250 nM in experiment [2].

For the compound `C=C(C)C(=O)Nc1ccc(-c2c(C3=CCC(C(=O)N4CC5CCC(C5)C4)CC3)c3c(N)ncnc3n2C)cc1` (stereo not drawn) [Example 387], the results for the IC50 in experiment [1] and in experiment [2] were 100 to 250 nM and at most 100 nM, respectively.

Consider `C=C(C)C(=O)Nc1ccc(-c2c(-c3ccc(C(=O)N4CCC[C@@H](OC)C4)cc3)c3c(N)ncnc3n2C)cc1` [Example 388], for which the IC50 in experiment [1] was 250 to 1000 nM; in experiment [2], 100 to 250 nM.

With `C=C(C)C(=O)Nc1ccc(-c2c(-c3ccc(C(=O)NCC4CCC4)c(OC)c3)c3c(N)ncnc3n2C)cc1` [Example 391], the IC50 in experiment [1] is below 100 nM; in experiment [2], at most 100 nM.

Take `C=C(C)C(=O)Nc1ccc(-c2c(-c3ccc(Oc4nnc(C)o4)cc3)c3c(N)ncnc3n2C)cc1` [Example 393]: the IC50 in experiment [1] was in the range of 1000 to 100000 nM; in experiment [2], 250 to 1000 nM.

Take `C=C(C)C(=O)Nc1ccc(-c2c(-c3ccc(Oc4cccc(C)n4)c(F)c3)c3c(N)ncnc3n2C)cc1` [Example 395]: the IC50 in experiment [1] was below 100 nM; in experiment [2] it was at most 100 nM.

Turning to `C=C(C)C(=O)Nc1ccc(-c2c(-c3ccc(C(=O)NCC4CCC4)nc3)c3c(N)ncnc3n2C)cc1` [Example 399], the IC50 in experiment [1] is 100 to 250 nM; in experiment [2], at most 100 nM.

With `C=C(COC)C(=O)Nc1ccc(-c2c(-c3ccc(Oc4cccc(C)n4)cc3)c3c(N)ncnc3n2C)cc1` [Example 401], the results for the 50% inhibitory concentration (IC50) in experiment [1] and in experiment [2] were below 100 nM and at most 100 nM, respectively.

As for `C=C(C)C(=O)Nc1ccc(-c2c(-c3ccc(C(=O)N4CCCC4)cc3)c3c(N)ncnc3n2C)c(C)c1` [Example 406], the IC50 is below 100 nM in experiment [1] and at most 100 nM in experiment [2].

With `C=C(C)C(=O)Nc1ccc(-c2c(-c3ccc(C(=O)NCC(C)(C)F)cc3)c3c(N)ncnc3n2C)cc1` [Example 408], the 50% inhibitory concentration (IC50) was below 100 nM in experiment [1] and at most 100 nM in experiment [2].

On to `C=C(C)C(=O)Nc1ccc(-c2c(-c3ccc(C(=O)NCC(C)(C)COC)cc3)c3c(N)ncnc3n2C)cc1` [Example 409], for which the values for the IC50 in experiment [1] and in experiment [2] were below 100 nM and at most 100 nM, respectively.

On to `C=C(C)C(=O)Nc1ccc(-c2c(-c3ccc(C(=O)N(C)CC(C)C)cc3)c3c(N)ncnc3n2C)cc1` [Example 410], for which the IC50 in experiment [1] was below 100 nM; in experiment [2], at most 100 nM.

For `C=C(C)C(=O)Nc1ccc(-c2c(-c3ccc(C(=O)N(C)CC4(F)COC4)cc3)c3c(N)ncnc3n2C)cc1` [Example 411], the IC50 in experiment [1] and in experiment [2] was 250 to 1000 nM each time.

On to `C=C(C)C(=O)Nc1ccc(-c2c(-c3ccc(C(=O)NCC4CCC4)c(F)c3)c3c(N)ncnc3n2C)cc1` [Example 413], for which the IC50 was below 100 nM in experiment [1] and at most 100 nM in experiment [2].

As to `C=C(C)C(=O)Nc1ccc(-c2c(-c3ccc(Oc4cccc(C)n4)cc3)c3c(N)ncnc3n2C2COC2)cc1` [Example 415], the figures for the IC50 in experiment [1] and in experiment [2] were below 100 nM and at most 100 nM, respectively.

For `C=C(C)C(=O)Nc1ccc(-c2c(-c3ccc(C(=O)NCC(C)(C)OC)c(F)c3)c3c(N)ncnc3n2C)cc1` [Example 416], the IC50 in experiment [1] is below 100 nM; in experiment [2], at most 100 nM.

In the case of `C=C(C)C(=O)Nc1ccc(-c2c(-c3ccc(Oc4cccc(COC)n4)cc3)c3c(N)ncnc3n2C)cc1` [Example 417], the IC50 in experiment [1] is below 100 nM; in experiment [2], at most 100 nM.

Turning to `C=C(C)C(=O)Nc1ccc(-c2c(-c3ccc(Oc4cccc(CO)n4)cc3)c3c(N)ncnc3n2C)cc1` [Example 418], the values for the IC50 in experiment [1] and in experiment [2] were below 100 nM and at most 100 nM, respectively.

As to `C=C(C)C(=O)Nc1ccc(-c2c(C3=CC[C@@H](C(=O)N4CC5CCC(C5)C4)CC3)c3c(N)ncnc3n2C)cc1` [Example 419], the IC50 is below 100 nM in experiment [1] and at most 100 nM in experiment [2].

As for `C=C(C)C(=O)Nc1ccc(-c2c(-c3cc(F)c(Oc4ncc(C)cn4)c(F)c3)c3c(N)ncnc3n2C)cc1` [Example 423], the IC50 in experiment [1] was below 100 nM; in experiment [2] it was 100 to 250 nM.

In the case of `C=C(C)C(=O)Nc1ccc(-c2c(-c3ccc(Oc4ncc(F)cn4)c(C)c3)c3c(N)ncnc3n2C)c(F)c1` [Example 424], the IC50 was below 100 nM in experiment [1] and at most 100 nM in experiment [2].

As to `C=C(C)C(=O)Nc1ccc(-c2c(-c3ccc(Oc4nccc(C)n4)cc3F)c3c(N)ncnc3n2C)cc1` [Example 425], the IC50 in experiment [1] is below 100 nM; in experiment [2], at most 100 nM.

As to `C=C(C)C(=O)Nc1ccc(-c2c(-c3ccc(Oc4nccc(C)n4)cc3)c3c(N)ncnc3n2C)c(F)c1` [Example 426], the IC50 in experiment [1] is below 100 nM; in experiment [2] it was at most 100 nM.

Consider `C=C(C)C(=O)Nc1ccc(-c2c(-c3ccc(Oc4ncc(F)cn4)cc3)c3c(N)ncnc3n2C)c(F)c1` [Example 427], for which the IC50 was below 100 nM in experiment [1] and at most 100 nM in experiment [2].

Regarding `C=C(C)C(=O)Nc1ccc(-c2c(-c3ccc(Oc4ncc(F)cn4)cc3)c3c(N)ncnc3n2C)cc1` [Example 428], the IC50 was below 100 nM in experiment [1] and at most 100 nM in experiment [2].

`C=C(C)C(=O)Nc1ccc(-c2c(-c3ccc(Oc4ncc(F)cn4)c(C#N)c3)c3c(N)ncnc3n2C)cc1` [Example 429]: the IC50 in experiment [1] and in experiment [2] was 100 to 250 nM in each case.

For `C=C(C)C(=O)Nc1ccc(-c2c(-c3ccc(C(=O)N4CCCC4)cc3)c3c(N)ncnc3n2C)c(OC)c1` [Example 433], the IC50 in experiment [1] is below 100 nM; in experiment [2], at most 100 nM.

For the compound `C=C(C)C(=O)Nc1ccc(-c2c(-c3ccc(C(=O)N4CCCC4)cc3)c3c(N)ncnc3n2C)c(Cl)c1` [Example 434], the IC50 in experiment [1] was below 100 nM; in experiment [2], at most 100 nM.

As to `C=C(C)C(=O)Nc1ccc(-c2c(-c3ccc(C(=O)N4CCCC4)cc3)c3c(N)ncnc3n2C)c(C#N)c1` [Example 435], the IC50 in experiment [1] is below 100 nM; in experiment [2], 100 to 250 nM.

As to `C=C(C)C(=O)Nc1ccc(-c2c(-c3ccc(C(=O)N4CCCC4)cc3)c3c(N)ncnc3n2C)c(C(F)F)c1` [Example 436], the IC50 in experiment [1] is below 100 nM; in experiment [2], 100 to 250 nM.

As to `C=C(C)C(=O)Nc1ccc(-c2c(-c3ccc(C(=O)N4CCC[C@H]4C#N)c(F)c3)c3c(N)ncnc3n2C)cc1` [Example 437], the IC50 is below 100 nM in experiment [1] and at most 100 nM in experiment [2].

`C=C(C)C(=O)Nc1ccc(-c2c(-c3ccc(Oc4cccc(C)n4)nc3)c3c(N)ncnc3n2C)cc1` [Example 441]: the half-inhibitory concentration (IC50) in experiment [1] and in experiment [2] was 250 to 1000 nM throughout.

Take `C=C(C)C(=O)Nc1ccc(-c2c(-c3ccc(Oc4cccc(C)n4)cc3F)c3c(N)ncnc3n2C)cc1` [Example 442]: the IC50 in experiment [1] was below 100 nM; in experiment [2], at most 100 nM.
